Reference: patent US8741932B2, “Imidazopyridine derivatives” (Piramal Enterprises Limited, priority 2009, dated 2014)
Like-named read-outs stand apart in the source and are kept apart here.

Legend:
[1] = tested on: H460; test: Cytotoxicity assay (propidium iodide), H460; format: cell-based; conditions: H460 (C1b, lung), 48 hours
Description: (§1) Cells from cell lines as mentioned in the table given below were seeded at a density of 3000 cells/well in a white opaque 96-well plate. Following incubation at 37° C./5% CO2 for a period of 18-24 hours, the cells were treated with various concentrations (stock solution was prepared in DMSO and subsequent dilutions were made in media as per ATCC guidelines) of the representative compounds of present invention (refer table 3) for a period of 48 hours. At the end of treatment, the spent culture medium was discarded, the cells were washed with 1×PBS and 200 μl of 7 μg/ml propidium iodide was added to each well. The plates were frozen at −70° C. for at least 24 hours. For analysis, the plates were brought to RT, allowed to thaw and were read in PolarStar fluorimeter with the fluorescence setting. The percentage of viable cells in the non treated set of wells was considered to be 100 and the percentage viability following treatment was calculated accordingly. IC50 values were calculated from graphs plotted using these percentages.

[2] = tested on: MDA MB 231; test: Cytotoxicity assay (propidium iodide), MDA MB 231; format: cell-based; conditions: MDA MB 231 (C6a, breast); 48 hours
Description: as §1

[3] = tested on: A549; test: Cytotoxicity assay (propidium iodide), A549; format: cell-based; conditions: A549 (C1a, lung), 48 hours
[4] = tested on: PC3
[5] = tested on: A2780; test: Cytotoxicity assay (propidium iodide), A2780; format: cell-based; conditions: A2780 (C3a, ovarian), 48 hours
Description: as §1

[6] = target: STAT3; test: STAT3 bioassay (Hela Stat3-luc, luciferase); format: cell-based; conditions: Oncostatin M induction
How it was run: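 Hela Stat3-luc cells (20,000/well, 24 h) pretreated with compound 1 h, then induced with 100 ng/ml final Oncostatin M for 7-8 h at 37 °C. Luciferase luminescence after lysis; percent inhibition versus induction control, IC50 from these percentages.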

[7] = tested on: IL-6; test: Human monocyte assay, LPS-stimulated IL-6; format: cell-based; conditions: human monocytes, 1 μg/ml LPS, 5 hours
How it was run: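 Adherent human PBMC-derived monocytes (2×10^4/well) were cultured 48 h, preincubated 30 min with compound or 0.5% DMSO, then stimulated with 1 μg/ml E. coli LPS for 5 h at 37° C. TNF-α and IL-6 in supernatants were measured by ELISA.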

[8] = tested on: HT29; test: Cytotoxicity assay (propidium iodide), HT29; format: cell-based; conditions: HT29 (C4a, colon); 48 hours
Description: as §1

[9] = tested on: HCT116; test: Cytotoxicity assay (propidium iodide), HCT116; format: cell-based; conditions: Homo sapiens, HCT-116; HCT116 (C4b, colon); 48 hours
[10] = tested on: U 87 MG; test: Cytotoxicity assay (propidium iodide), U 87 MG; format: cell-based; conditions: Homo sapiens; U 87 MG (C8b, glioblastoma); 48 hours
Description: as §1

[11] = tested on: U 373; test: Cytotoxicity assay (propidium iodide), U 373; format: cell-based; conditions: Homo sapiens, U373 MG; U 373 (C8a, glioblastoma); 48 hours
Description: as §1

[12] = tested on: PC3; test: Cytotoxicity assay (propidium iodide), PC3; conditions: Homo sapiens, PC-3, 48 h, read-out: IC50 cytotoxicity
[13] = target: T1, mTOR (Homo sapiens, UniProt P42345); test: mTOR activity assay (cell ELISA, Phospho-AKT Ser 473, A2780 cells); format: cell-based; conditions: 1 μM, read-out: % Inhibition of mTOR activity at 1 μM
T1 construct: endogenous in cells; host or cells: A2780 ovarian cell line (ATCC)
Description: Seed cells (Ovarian cell line A2780, ATCC) were plated in a 96 well microtitre plate at a density of 50,000 cells/cm^2 in appropriate complete cell culture medium. The cells were allowed to adhere for 18-24 hours. The cells were allowed to starve for 24 hours. […] Then the cells were stimulated with 20% FCS for 30 minutes. A typical assay would consist of a set of unstimulated cells, a set of stimulated cells and a set of cells treated with compounds of present invention and a set of cells treated with the stimulator. The medium was discarded. The cells were fixed with 100 μL of 3.7% formaldehyde for 15 minutes. The formaldehyde was discarded by inverting the plate and tapping it on a thick tissue paper layer to remove traces. The cells were washed and permeabilized with 200 μL PBS+Triton-X 100 solution (hereafter referred to as PBS-Triton, containing 0.1% triton-X 100 in 1×PBS) three times, incubating the cells each time for 5 minutes. 100 μL blocking solution (10% FCS in PBS-Triton) was added and incubated for 1 hour at 25° C. The blocking solution was discarded and cells were incubated with the primary antibody in PBS-Triton at a dilution of 1:500 for 1 hour at RT (25° C.). [The primary antibody is Phospho-AKT (Ser 473); Cell Signaling; Cat. No. 9271]. The primary antibody solution was discarded and the cells were washed 3 times with PBS-Triton solution and incubated with the HRP-conjugated secondary antibody in PBS-Triton at a dilution of 1:500 for 1 hour at RT (25° C.). The cells were washed 3 times with PBS-Triton followed by two washes with PBS (to remove traces of triton-X 100). The OPD (o-phenylene diamine dihydrochloride) substrate was prepared for detection of the signal by dissolving one tablet set (two tablets) of SigmaFast OPD (Sigma, Cat No. P9187) in 20 mL distilled water. It should be protected from light. 100 μL OPD solutions was added to the wells and the plate was incubated in the dark for 3-5 minutes (depending upon the development of the color). The reaction was stopped by adding 50 μL 2 N H2SO4. The absorbance was measured at 490 nm. The values were expressed in the treated samples, in terms of percentage or fold decrease in AKT phosphorylation with respect to the induced sample. PI-103 (Calbiochem, USA) was used as a standard.

[14] = target: T2, PI3Kα kinase (Homo sapiens, UniProt P42336); test: Kinase assay (PI3Kα); format: biochemical; conditions: read-out: IC50 (μM) for PI3K inhibition
T2 construct: purchased Millipore, USA
How it was run: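 Recombinant PI3Kα (20 ng) phosphorylated 12.5 μg phosphatidylinositol with 10 μM ATP and 1 μCi ^32γ P […] in 10 mM Hepes pH 7.5, 50 mM MgCl2 for 20 min at 30° C. Lipids were extracted with MeOH/CHCl3, resolved by TLC, and labelled PI quantified by autoradiography densitometry; PI-103 served as standard.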

T2 sequence (P42336 whole entry): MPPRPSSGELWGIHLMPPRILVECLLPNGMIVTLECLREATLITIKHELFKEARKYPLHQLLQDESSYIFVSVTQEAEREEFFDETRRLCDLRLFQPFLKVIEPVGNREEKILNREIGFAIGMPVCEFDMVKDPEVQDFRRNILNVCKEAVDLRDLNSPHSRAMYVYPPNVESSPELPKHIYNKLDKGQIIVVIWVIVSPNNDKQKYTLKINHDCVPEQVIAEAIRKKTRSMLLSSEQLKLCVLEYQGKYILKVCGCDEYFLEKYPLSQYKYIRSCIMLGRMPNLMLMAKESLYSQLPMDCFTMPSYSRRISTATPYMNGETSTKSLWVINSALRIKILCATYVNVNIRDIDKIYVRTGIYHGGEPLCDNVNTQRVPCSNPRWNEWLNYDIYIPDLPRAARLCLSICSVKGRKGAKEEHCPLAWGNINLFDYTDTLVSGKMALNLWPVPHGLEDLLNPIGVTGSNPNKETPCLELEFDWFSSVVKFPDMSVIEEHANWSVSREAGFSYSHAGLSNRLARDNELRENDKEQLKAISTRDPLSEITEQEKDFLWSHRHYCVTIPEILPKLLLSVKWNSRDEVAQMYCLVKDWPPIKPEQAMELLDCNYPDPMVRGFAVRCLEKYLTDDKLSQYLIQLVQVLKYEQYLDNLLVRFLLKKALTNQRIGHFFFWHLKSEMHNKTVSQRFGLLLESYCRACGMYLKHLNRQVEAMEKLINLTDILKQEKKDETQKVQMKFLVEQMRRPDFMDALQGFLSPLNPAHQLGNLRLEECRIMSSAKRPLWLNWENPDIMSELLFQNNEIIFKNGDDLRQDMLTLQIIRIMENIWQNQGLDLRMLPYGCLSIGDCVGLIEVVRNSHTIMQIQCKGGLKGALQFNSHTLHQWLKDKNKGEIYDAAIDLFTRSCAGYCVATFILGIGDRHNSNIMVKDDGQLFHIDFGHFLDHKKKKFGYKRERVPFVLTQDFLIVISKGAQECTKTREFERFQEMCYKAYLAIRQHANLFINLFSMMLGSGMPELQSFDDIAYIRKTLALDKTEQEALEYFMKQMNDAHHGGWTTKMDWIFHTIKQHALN
T2 sequence (P27986 whole entry partner): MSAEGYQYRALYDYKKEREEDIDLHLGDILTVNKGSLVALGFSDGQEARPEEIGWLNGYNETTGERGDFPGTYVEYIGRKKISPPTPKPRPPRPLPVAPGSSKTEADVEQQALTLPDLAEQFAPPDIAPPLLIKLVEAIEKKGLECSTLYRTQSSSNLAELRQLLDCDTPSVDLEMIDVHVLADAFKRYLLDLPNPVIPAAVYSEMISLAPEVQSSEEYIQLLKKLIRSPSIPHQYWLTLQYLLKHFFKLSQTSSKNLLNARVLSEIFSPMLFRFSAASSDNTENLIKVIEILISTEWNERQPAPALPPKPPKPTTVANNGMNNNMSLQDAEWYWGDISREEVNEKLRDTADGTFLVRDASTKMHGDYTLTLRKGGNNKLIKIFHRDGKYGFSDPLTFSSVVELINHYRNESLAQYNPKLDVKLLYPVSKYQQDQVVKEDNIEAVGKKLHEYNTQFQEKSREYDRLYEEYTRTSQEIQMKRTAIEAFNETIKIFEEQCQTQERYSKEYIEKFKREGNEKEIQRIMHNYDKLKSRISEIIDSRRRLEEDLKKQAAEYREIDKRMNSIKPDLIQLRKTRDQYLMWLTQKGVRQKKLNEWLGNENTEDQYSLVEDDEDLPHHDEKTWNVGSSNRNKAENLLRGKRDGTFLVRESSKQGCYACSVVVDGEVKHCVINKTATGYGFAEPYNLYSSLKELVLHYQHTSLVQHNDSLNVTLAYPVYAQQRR

Structure (SMILES)	IC50 [1] [µM]	IC50 [2] [µM]	IC50 [3] [µM]	IC50 [4] [µM]	IC50 [5] [µM]	IC50 [6] [µM]	IC50 [7] [µM]	IC50 [8] [µM]	IC50 ([1]; Homo sapiens, NCI-H460) [µM]	IC50 ([3]; Homo sapiens) [µM]	IC50 [9] [µM]	IC50 [10] [µM]	IC50 ([5]; Homo sapiens) [µM]	IC50 ([6]; Homo sapiens) [µM]	IC50 [11] [µM]	IC50 [12] [µM]	inhibition at 1 µM [13] [%]	IC50 [14] [µM]
Cc1cccc(S(=O)(=O)N(C)N=Cc2cnc3ccc(-c4cccnc4)cn23)c1 [Example 2]	0.01 to 5	0.01 to 5	0.01 to 5	0.01 to 5	0.01 to 5	5 to 10	0.001 to 5	> 5										
Cc1ccc(S(=O)(=O)N(C)N=Cc2cnc3ccc(-c4cccnc4)cn23)cc1F [Example 20, 3-Fluoro-N, 4-dimethyl-N′-((6-(pyridine-3-yl)imidazo[1,2-a]pyridine-3-yl)methylene) benzenesulfonohydrazide]									> 5	> 5	> 5	> 5	> 5	0.1 to 5	> 5	> 5	30 to 50	0.01 to 0.5
CN(N=Cc1cnc2ccc(-c3cccnc3)cn12)S(=O)(=O)c1ccc(F)c(C#N)c1 [Example 24, 3-Cyano-4-fluoro-N-methyl-N′-((6-(pyridine-3-yl)imidazo[1,2-a]pyridine-3-yl)methylene) benzenesulfonohydrazide]									0.01 to 5	0.01 to 5	> 5	0.01 to 5	0.01 to 5	> 10	0.01 to 5	0.01 to 5		
Cc1ccc([N+](=O)[O-])cc1S(=O)(=O)N(C)N=Cc1cnc2ccc(-c3ccc(F)nc3)cn12 [Example 83, N′-((6-(6-fluoropyridine-3-yl)imidazo[1,2-a]pyridine-3-yl)methylene)-n, 2-dimethyl-5-nitrobenzenesulfonohydrazide]	> 5	0.01 to 5	> 5	> 5	0.01 to 5			> 5										
